Test results: patent US5409709A (priority 1991, dated 1995)

Columns and labels:
pain threshold = experiment: Analgesic action (pressure stimulation of tail base, rise ratio of pain threshold); type: in vivo, Wistar strain male rats
Protocol: Test medication A consisted of a suspension of Acasia used as the control. The other test medications contained the ingredients listed in the Table below, and were suspended in Acasia solution. These test medications were administered orally at a volume of 1 ml/100 g B.W. A pressure stimulation device (Analgesy-meter Model TK-201, Unicom) was used to apply pressure to the base of the tails of the animals. A pain threshold of […] was selected for the experimented animal based on parameters of reaction to temporary pain consisting of writhing, fleeing and squealing. The pain threshold was measured prior to oral administration of each test medication as well as at 30 and 120 minutes after administration. The ratio of the rise in the pain threshold at 30 and 120 minutes after administration was calculated from comparison with that before administration.

writhing syndrome = experiment: Analgesic action (acetic acid writhing syndrome); type: in vivo, ddY strain male mice; conditions: oral, mouse; in terms of the amount of analgesic antipyretic ingredient
[1] = tested on: body temperature (pyrogenic area, yeast); experiment: Antipyretic action (yeast-induced fever); type: in vivo, Wistar strain male rats; conditions: oral, rat, up to 6 h; in terms of the amount of the antipyretic analgesic ingredient

Structure (SMILES): CC(C)Cc1ccc(C(C)C(=O)O)cc1 (stereo not shown) [Ibuprofen, 2-(4-isobutylphenyl)propionic acid]
- Pain threshold at 30 minutes (in words) (pain threshold; 30 minutes after administration): a remarkable rise was observed
- Pain threshold at 120 minutes (in words) (pain threshold; 120 minutes after administration): essentially equal to that before administration
- ED50 (writhing syndrome): 137 mg/kg
- ED50 [1]: 20.4 mg/kg
